≈ marks a conversion by molar mass, not a printed value.
Assays:
Proteus vulgaris OX-19 = assay: MIC by agar dilution method, Proteus vulgaris OX-19; format: cell-based; conditions: OX19; Proteus vulgaris OX-19, agar dilution; read-out: Minimum Inhibitory Concentration
Text: (§1) The minimum inhibitory concentrations of the SF-2080A substance and SF-2080B substance against various microorganisms as measured by the agar dilution method are shown in Table 4 below.

[1] = tested on: Staphylococcus aureus FDA 209P JC-1; assay: MIC by agar dilution method, Staphylococcus aureus FDA 209P JC-1; format: cell-based; conditions: FDA209P; Staphylococcus aureus FDA 209P JC-1, agar dilution; read-out: Minimum Inhibitory Concentration
Text: as §1

[2] = tested on: Shigella dysenteriae Shigae; assay: microbe, parasite or virus in culture; format: cell-based; conditions: read-out: Minimum Inhibitory Concentration
Solubility = format: physicochemical
Pyricularia oryzae = assay: microbe, parasite or virus in culture; format: cell-based; conditions: read-out: Minimum Inhibitory Concentration
[3] = tested on: Trichophyton interdigitale; assay: MIC by plate dilution method, Trichophyton interdigitale; format: cell-based; conditions: read-out: minimum growth inhibitory concentration (MIC)
Text: (§2) The minimum growth inhibitory concentration (MIC) against each test strain according to the plate dilution method is shown below: […]

Aspergillus fumigatus [4] = assay: MIC by agar dilution method, Aspergillus fumigatus; format: cell-based; conditions: read-out: Minimum Inhibitory Concentration
Text: as §1

various microorganisms = assay: Agar dilution method, various microorganisms (overall statement); format: cell-based; conditions: overall statement in words
Text: as §1

Trichophyton asteroides [5] = assay: MIC by plate dilution method, Trichophyton asteroides; format: cell-based; conditions: read-out: minimum growth inhibitory concentration (MIC)
Text: as §2

[6] = tested on: Serratia marcescens No. 1; assay: MIC by agar dilution method, Serratia marcescens No. 1; format: cell-based; conditions: Serratia marcescens No. 1, agar dilution; read-out: Minimum Inhibitory Concentration
Text: as §1

Salmonella typhi O-901-W = assay: MIC by agar dilution method, Salmonella typhi O-901-W; format: cell-based; conditions: Salmonella enterica, read-out: Minimum Inhibitory Concentration
[7] = tested on: Escherichia coli NIHJ JC-2; assay: MIC by agar dilution method, Escherichia coli NIHJ JC-2; format: cell-based; conditions: NIHJJC2; Escherichia coli NIHJ JC-2, agar dilution; read-out: Minimum Inhibitory Concentration
Text: as §1

Trichophyton asteroides [8] = assay: Infection treatment test of guinea pigs infected by Trichophyton asteroides, infected organism cultivation positive ratio; format: in vivo, Trichophyton asteroides; guinea pig; conditions: for infected organism cultivation positive ratio: after 8 days treatment, 1% solution, guinea pig
Description: (§3) An infection treatment test of guinea pigs infected by a strain of Trichophyton asteroides on their backs was carried out using the liquid preparation having formulation as shown in Table 6.
(§4) Hairs were pulled off from a white Hartly guinea pig (4 guinea pigs per group) at 4 areas of the back thereof (2 areas on each side, 4×6 cm) and a Trichophyton asteroides-floating solution (liquid Sabouraud's culture medium; number of living cells: 2×10^7 /ml) was infected with a brush in an amount of 0.5 ml per each area. After 2 days from the infection, 0.25 ml of a 1% solution of SF-2080A substance (see Table 6) was applied at one area on each side, once a day and continuously for 8 days.
(§5) The same procedure as above was carried out, except using a 1% solution of pyrrolnitrin and a 1% solution of clotrimazole. Guinea pigs so treated were compared with those to which no treatment was applied.
After treatment for 8 days, 3 skin pieces were collected from each affecte area and cultivated on a Sabouraud's agar plate for 7 days to observe the infected organism cultivation positive ratio.

[9] = Acute toxicity by intraperitoneal administration in mice; conditions: mouse, in vivo, ip
Diaporthe citri = assay: MIC by agar dilution method, Diaporthe citri; format: cell-based; conditions: read-out: Minimum Inhibitory Concentration
Text: as §1

[10] = tested on: Staphylococcus aureus Smith; assay: MIC by agar dilution method, Staphylococcus aureus Smith; format: cell-based; conditions: read-out: Minimum Inhibitory Concentration
Text: as §1

Aspergillus fumigatus [11] = assay: MIC by plate dilution method, Aspergillus fumigatus; format: cell-based; conditions: read-out: minimum growth inhibitory concentration (MIC)
Text: as §2

[12] = tested on: Bacillus subtilis ATCC 6633; assay: MIC by agar dilution method, Bacillus subtilis ATCC 6633; format: cell-based; conditions: ATCC6633; Bacillus subtilis ATCC 6633, agar dilution; read-out: Minimum Inhibitory Concentration
Text: as §1

[13] = tested on: Pseudomonas aeruginosa IAM 1007; assay: MIC by agar dilution method, Pseudomonas aeruginosa IAM 1007; format: cell-based; conditions: IAM1007; Pseudomonas aeruginosa IAM 1007, agar dilution; read-out: Minimum Inhibitory Concentration
Text: as §1

fungi = assay: Plate dilution method, fungi (overall statement); format: cell-based; conditions: overall statement in words
Text: as §2

[14] = tested on: Escherichia coli K-12 IAM 1264; assay: MIC by agar dilution method, Escherichia coli K-12 IAM 1264; format: cell-based; conditions: IAM1264; Escherichia coli K-12 IAM 1264, agar dilution; read-out: Minimum Inhibitory Concentration
Text: as §1

Trichophyton asteroides [15] = assay: MIC by agar dilution method, Trichophyton asteroides; format: cell-based; conditions: read-out: Minimum Inhibitory Concentration
Text: as §1

[16] = tested on: Trichophyton interdigital; assay: MIC by agar dilution method, Trichophyton interdigital; format: cell-based; conditions: read-out: Minimum Inhibitory Concentration
Text: as §1

Trichophyton asteroides [17] = assay: Infection treatment test of guinea pigs infected by Trichophyton asteroides, observation with the naked eye; format: in vivo, Trichophyton asteroides; guinea pig; conditions: for Effect on flush / Effect on scale / Effect on thickening of the affected skin: guinea pig, 1% solution, topical, once a day for 8 days, naked eye
Description: as §3, §4, §5

[18] = tested on: Cryptococcus neoformans Cr-1; assay: MIC by agar dilution method, Cryptococcus neoformans Cr-1; format: cell-based; conditions: CR1; Cryptococcus neoformans Cr-1, agar dilution; read-out: Minimum Inhibitory Concentration
Text: as §1

[19] = tested on: Staphylococcus epidermidis ATCC 14990; assay: MIC by agar dilution method, Staphylococcus epidermidis ATCC 14990; format: cell-based; conditions: ATCC14990; Staphylococcus epidermidis ATCC 14990, agar dilution; read-out: Minimum Inhibitory Concentration
Text: as §1

Candida albicans C-A-24 = assay: MIC by plate dilution method, Candida albicans C-A-24; format: cell-based; conditions: CA24; Candida albicans C-A-24, plate dilution; read-out: minimum growth inhibitory concentration (MIC)
Text: as §2

[20] = tested on: Cryptococcus neoformans Cr-1; assay: MIC by plate dilution method, Cryptococcus neoformans CR-1; format: cell-based; conditions: CR1; Cryptococcus neoformans CR-1, plate dilution; read-out: minimum growth inhibitory concentration (MIC)
Text: as §2

[21] = tested on: Klebsiella pneumoniae ATCC 27763; assay: MIC by agar dilution method, Klebsiella pneumoniae ATCC 27763; format: cell-based; conditions: ATCC27763; Klebsiella pneumoniae ATCC 27763, agar dilution; read-out: Minimum Inhibitory Concentration
Text: as §1

[22] = as compared with pyrrolnitrin and clotrimazole, statement in words

Row | SMILES | MIC (Proteus vulgaris OX-19) | MIC [1] | MIC [2] | Solubility in acetone (Solubility) | Solubility in chloroform (Solubility) | Solubility in methanol (Solubility) | MIC (Pyricularia oryzae) | MIC (Aspergillus fumigatus [4]) | antibacterial/antimicrobial effectiveness against the strains tested (various microorganisms) | MIC [6] | MIC (Salmonella typhi O-901-W) | MIC [7] | infected organism cultivation positive ratio (Trichophyton asteroides [8]; day of cultivation 3) | infected organism cultivation positive ratio (Trichophyton asteroides [8]; day of cultivation 5) | infected organism cultivation positive ratio (Trichophyton asteroides [8]; day of cultivation 7) | MIC (Diaporthe citri) | MIC [10] | MIC [12] | MIC [13] | MIC [14] | also measured
1 | O=[N+]([O-])c1c[nH]c(Cl)c1Cl [SF-2080A substance] | 6.25 µg/mL (≈ 34.5 µM) | 1.56 µg/mL (≈ 8.62 µM) | 3.13 µg/mL (≈ 17.3 µM) | easily soluble | soluble | easily soluble | 0.8 µg/mL (≈ 4.42 µM) | 25 µg/mL (≈ 138 µM) | generally effective against all strains of bacteria tested | 6.25 µg/mL (≈ 34.5 µM) | 6.25 µg/mL (≈ 34.5 µM) | 6.25 µg/mL (≈ 34.5 µM) | 25% | 37% | 37% | 0.8 µg/mL (≈ 4.42 µM) | 3.13 µg/mL (≈ 17.3 µM) | 1.56 µg/mL (≈ 8.62 µM) | 6.25 µg/mL (≈ 34.5 µM) | 6.25 µg/mL (≈ 34.5 µM) | MIC [3]: 1.56 µg/mL (≈ 8.62 µM); MIC (Trichophyton asteroides [5]): 3.12 µg/mL (≈ 17.2 µM); therapeutic effect, cultivation positive ratio (Trichophyton asteroides [8]; [22]): excellent therapeutic effects; decrease in the cultivation positive ratio (Trichophyton asteroides [8]; compared with pyrrolnitrin-dosed, clotrimazole-dosed and no treatment groups, in words): evident decrease; acute toxicity, survival ([9]; 10 mg/kg): all mice survived; acute toxicity, mortality ([9]; 30 mg/kg): all mice died; MIC (Aspergillus fumigatus [11]): 25 µg/mL (≈ 138 µM); inhibition of growth of fungi (fungi): inhibits the growth of fungi; MIC (Trichophyton asteroides [15]): 3.12 µg/mL (≈ 17.2 µM); MIC [16]: 1.56 µg/mL (≈ 8.62 µM); therapeutic effect, observation with the naked eye (Trichophyton asteroides [17]; [22]): excellent therapeutic effects; treatment effect in thickening of the affected skin, flush, and scale (Trichophyton asteroides [17]; compared with 1% pyrrolnitrin and 1% clotrimazole, statement in words): best treatment effect; MIC [18]: 25 µg/mL (≈ 138 µM); MIC [19]: 3.13 µg/mL (≈ 17.3 µM); MIC (Candida albicans C-A-24): 100 µg/mL (≈ 553 µM); MIC [20]: 25 µg/mL (≈ 138 µM); MIC [21]: 6.25 µg/mL (≈ 34.5 µM)
2 | Clc1ccccc1C(c1ccccc1)(c1ccccc1)n1ccnc1 [clotrimazole] | – | – | – | – | – | – | – | – | – | – | – | – | 75% | 96% | 96% | – | – | – | – | – | Effect on flush (Trichophyton asteroides [17]): Ineffective; Effect on scale (Trichophyton asteroides [17]): Effective; Effect on thickening of the affected skin (Trichophyton asteroides [17]): Effective
3 | O=[N+]([O-])c1c(Cl)cccc1-c1c[nH]cc1Cl [pyrrolnitrin] | – | – | – | – | – | – | – | – | – | – | – | – | 62% | 87% | 87% | – | – | – | – | – | Effect on flush (Trichophyton asteroides [17]): Ineffective; Effect on scale (Trichophyton asteroides [17]): Ineffective; Effect on thickening of the affected skin (Trichophyton asteroides [17]): Effective
4 | O=[N+]([O-])c1c(Cc2cc(Cl)cc(Cl)c2O)[nH]c(Cl)c1Cl [SF-2080B substance] | 0.78 µg/mL (≈ 2.19 µM) | 0.2 µg/mL (≈ 0.562 µM) | 50 µg/mL (≈ 140 µM) | easily soluble | soluble | easily soluble | 3.13 µg/mL (≈ 8.79 µM) | > 100 µg/mL | very effective against a limited number of strains, but it is less active or lacks toward the others | > 100 µg/mL | 50 µg/mL (≈ 140 µM) | 100 µg/mL (≈ 281 µM) | – | – | – | 0.4 µg/mL (≈ 1.12 µM) | 0.2 µg/mL (≈ 0.562 µM) | 0.1 µg/mL (≈ 0.281 µM) | > 100 µg/mL | 100 µg/mL (≈ 281 µM) | acute toxicity, fraction of mice that survived ([9]; 100 mg/kg): 2/3; MIC (Trichophyton asteroides [15]): > 100 µg/mL; MIC [16]: 100 µg/mL (≈ 281 µM); MIC [18]: > 100 µg/mL; MIC [19]: 0.1 µg/mL (≈ 0.281 µM); MIC [21]: > 100 µg/mL

— US4376778A, “Antibiotic substances and processes for production thereof” (Meiji Seika Kaisha, Ltd., priority 1979, dated 1983)
